Literature values as cited in patent publication US20120237590A1 (priority 2011, published 2012).

Key:
[1] = June 2005 to 2008; 27,996 exenatide and 16,276 sidagliptin users
[2] = test system: Amyloid β; conditions: mice, 20 mg/kg gavage, 12 weeks

users who suffered acute pancreatitis [1]: 0.12%
Structure (SMILES): N[C@@H](CC(=O)N1CCn2c(nnc2C(F)(F)F)C1)Cc1cc(F)c(F)cc1F [Sitagliptin]
decrease of amyloid β levels and amyloid plaques [2]: about 50%
levels of incretin GLP-1 in the brain [2]: increased
